Key:
Format in all cases: binding
[1] = Complexation of physiological cation Ca2+, proton NMR; settings: same procedure as Example 2: 1 mmol/l derivative, 4 mmol/l cation
Method: (§1) Each complex is prepared by adding 4 mmol/l of the tested cation to 500 μl of an aqueous solution containing 1 mmol/l of the product from Example 1. The following cations were tested: Lu^3+, La^3+, Dy^3+, Eu^3+ and Co^2+.
(§2) In this example, the complexation properties of the derivative from Example 1 were tested vis à vis physiological cations: calcium, sodium and potassium, all of which are required in the development of living organisms.
(§3) The same procedure was used as given in Example 2, and the resulting products were characterised by proton NMR spectrometry.

[2] = Complexation of physiological cation Na+, proton NMR; settings: same procedure as Example 2: 1 mmol/l derivative, 4 mmol/l cation
Method: as §1, §2, §3

[3] = Complexation of Lu3+ followed by proton NMR; settings: 1 mmol/l derivative, 4 mmol/l cation, aqueous solution
Method: as §1
(§4) The resulting complexes were then characterised by proton nuclear magnetic resonance spectrometry.

[4] = Complexation of Co2+ followed by proton NMR; settings: 1 mmol/l derivative, 4 mmol/l cation, aqueous solution
Method: as §1, §4

[5] = Competition with EDTA in complexing Eu3+, proton NMR; settings: 1 mmol/l derivative, 4 mmol/l cation and EDTA (large excess of EDTA), aqueous solution
Method: (§5) In this example, experiments were carried out to compare the derivative from Example 1 and ethylene diamine tetra acetate (EDTA) in complexing Dy^3+, Eu^3+ and Co^2+ ions, in order to get an idea of the force of the complexes prepared in Example 2.
(§6) With this in mind, 4 mmol/l of the tested cation and EDTA were added to 50 μl of an aqueous solution containing 1 mmol/l of the derivative from Example 1. The resulting products were than characterised by proton NMR spectrometry.

[6] = Competition with EDTA in complexing Dy3+, proton NMR; settings: 1 mmol/l derivative, 4 mmol/l cation and EDTA (large excess of EDTA), aqueous solution
Method: as §5, §6

[7] = Competition with EDTA in complexing Co2+, proton NMR; settings: 1 mmol/l derivative, 4 mmol/l cation and EDTA (large excess of EDTA), aqueous solution
Method: as §5, §6

[8] = Complexation of La3+ followed by proton NMR; settings: 1 mmol/l derivative, 4 mmol/l cation, aqueous solution
Method: as §1, §4

[9] = Complexation of Dy3+ followed by proton NMR; settings: 1 mmol/l derivative, 4 mmol/l cation, aqueous solution
Method: as §1, §4

[10] = Complexation of Eu3+ followed by proton NMR; settings: 1 mmol/l derivative, 4 mmol/l cation, aqueous solution
Method: as §1, §4

[11] = Complexation of physiological cation K+, proton NMR; settings: same procedure as Example 2: 1 mmol/l derivative, 4 mmol/l cation
Method: as §1, §2, §3

Hexakis-(3,6-anhydro-2-O-carboxymethyl)-cyclomaltohexaose [Example 1]
effect of Ca^2+ on proton NMR peaks of the derivative (complexation) [1]: hardly affected
effect of Na^+ on proton NMR peaks of the derivative (complexation) [2]: hardly affected
interaction with Lu^3+ (change of proton NMR spectrum) [3]: several stoichiometrically different complexes co-exist in solution
interaction with Co^2+ (change of proton NMR spectrum) [4]: very strong interaction
strength of Eu^3+ complex compared to EDTA [5]: complexes the cations more strongly than EDTA
strength of Dy^3+ complex compared to EDTA [6]: complexes the cations more strongly than EDTA
strength of Co^2+ complex compared to EDTA [7]: complexes the cations more strongly than EDTA
interaction with La^3+ (change of proton NMR spectrum) [8]: H6 and H6′ protons located on the anhydro bridge can still be observed
interaction with Dy^3+ (change of proton NMR spectrum) [9]: very strong interaction
interaction with Eu^3+ (change of proton NMR spectrum) [10]: very strong interaction
effect of K^+ on proton NMR peaks of the derivative (complexation) [11]: hardly affected

From patent US6559135B2, “Per-(3-6-anhydro)cyclodextrins derivatives, preparation and use thereof for separating ions” (Commissariat a l'Energie Atomique, priority 2000, dated 2003)
